Test [1] concerns Platelet aggregation in dog PRP. Put plainly: In-Vitro Platelet Aggregation in PRP (ADP induced). Type of test: cell-based. Conditions: Canis lupus familiaris; for IC50: ADP 50 μm, 37° C.; for inhibition at 10 µM: ADP, test concentration 1 × 10^-5. The protocol: In-Vitro Platelet Aggregation in PRP
(§1) Healthy male or female dogs were fasted for 8 hours prior to drawing blood; then 30 ml whole blood was collected using a butterfly needle and 30 cc plastic syringe with 3 ml of 0.129M buffered sodium citrate (3.8%). The syringe was rotated carefully as blood was drawn to mix the citrate. Platelet-rich plasma (PRP) was prepared by centrifugation at 975×g for 3.17 minutes at room temperature, allowing the centrifuge to coast to a stop without braking. The PRP was removed from the blood with a plastic pipette and placed in a plastic capped, 50 ml Corning conical sterile centrifuge tube which was held at room temperature. Platelet poor plasma (PPP) was prepared by centrifuging the remaining blood at 2000×g for 15 minutes at room temperature allowing the centrifuge to coast to a stop without braking. The PRP was adjusted with PPP to a count of 2-3×10^8 platelets per ml. 400 for 5-(p-cyanophenyl)pentanoic acid in Section C of Example 1.
as §1, with “400 μl of the PRP preparation and 50 μl of the compound to be tested or saline were preincubated” for “400”, “1 minute at 37° C.” for “5-(p-cyanophenyl)pentanoic acid”, “a BioData aggregometer (BioData, Horsham, Pa.). 50 μl” for “Section C”, “adenosine 5'diphosphate (ADP) (50 μm final concentration) was added to the cuvettes and the aggregation was monitored for 1 minute. All compounds are tested in duplicate. Results are calculated as follows:” for “Example 1.”
Percent of control=[(maximal OD minus initial OD of compound) divided by
(maximal OD minus initial OD of control saline)]×100. The %
inhibition=100-(percent of control).

Test [2] has as its system ex vivo collagen induced platelet aggregation. In words: Inhibition of ex vivo collagen induced aggregation. The class given is in vivo, dog (Beagle). The conditions noted are these: dog. The protocol: INHIBITION OF EX VIVO COLLAGEN INDUCED AGGREGATION BY COMPOUNDS OF THE INVENTION
PURPOSE--The purpose of this assay is to determine the effects of antiplatelet compounds on ex vivo collagen induced platelet aggregation when administered either intravenously or orally to dogs.
Pretreatment (control) blood samples are drawn from either conscious or anesthetized dogs (Beagles) and centrifuged to prepare platelet rich plasma (PRP). Aggregatory response to collagen is measured in an aggregometer and used as Control. Compounds are administered, either intragasterically (either by capsule or stomach tube or intravenously. Blood samples are drawn at predetermined intervals after compound administration, PRP prepared and aggregation to collagen determined. Compound inhibition of aggregation is determined by comparing the aggregation response after compound administration to the pretreatment response. The study is continued for a maximum of 24 hours or until the platelet aggregation returns to control levels. (If aggregation is still inhibited after 7 hours, a blood sample is drawn the following morning and tested.) Duration of activity is determined by the length of time platelet aggregation is inhibited after compound administration.

One may read the IC50 as the concentration that inhibits the measured activity by half. The inhibition is the relative decrease from the control value, in per cent. With `COc1ccc(CCNC(=O)[C@H](CC(=O)O)NC(=O)CCCCc2ccc(C(=N)N)cc2)cc1` [3S [[5-[4-(aminoiminomethyl)phenyl]-1-oxopentyl]amino]-4-[[2-4-(methoxyphenyl)ethyl]amino]-4-oxobutanoic acid], in test [1], the IC50 worked out at 420 nM and the inhibition at 10 µM was 100%. For `N=C(N)c1ccc(CCCCC(=O)N[C@@H](CC(=O)O)C(=O)N(CCC(=O)O)CCc2ccccc2)cc1` [3S-[[5-[4-(Aminoiminomethyl)phenyl]-1-oxopentyl]amino]-4-[(2-carboxyethyl)(2-phenylethyl)amino]-4-oxobutanoic acid], in that order: 10000 nM and 53%.

Compound `COc1ccc(CCN(CCC(=O)O)C(=O)[C@H](CC(=O)O)NC(=O)CCCCc2ccc(C(=N)N)cc2)cc1` [3S-[[5-[4-(aminoiminomethyl)phenyl]-1-oxopentyl)amino]-4-[(2-carboxyethyl)(2-(4-methoxyphenyl)ethyl]amino]-4-oxobutanoic acid] registered an inhibition at 10 µM in test [1] of 66%. In test [1], `CC(C)CN(CCC(=O)O)C(=O)[C@H](CC(=O)O)NC(=O)CCCCc1ccc(C(=N)N)cc1` [3S-[[5-[4-(aminoiminomethyl)phenyl]-1-oxopentyl]amino]-4-[(2-carboxyethyl)(2-methylpropyl)amino]-4-oxobutanoic acid] gave an inhibition at 10 µM of 14%. Turning to `N=C(N)c1ccc(CCCCC(=O)N[C@@H](CC(=O)O)C(=O)N(CCC(=O)O)Cc2ccccc2)cc1` [3S-[[5-[4-(aminoiminomethyl)phenyl]-1-oxopentyl]amino]-4-[(2-carboxyethyl)(phenylmethyl)amino]-4-oxobutanoic acid], in test [1], half-maximal inhibition (IC50) required 4300 nM and the inhibition at 10 µM was 100%.

In test [1], `CC(C)CNC(=O)[C@H](CC(=O)O)NC(=O)CCCCc1ccc(C(=N)N)cc1` [3S-[[5-[4-(aminoiminomethyl)phenyl]-1-oxopentyl]amino]-4-[(2-methylpropyl)amino]-4-oxobutanoic acid] gave a half-maximal inhibitory concentration (IC50) of 700 nM and an inhibition at 10 µM of 100%. Moreover, the “Ex-vivo collagen induced aggregation, Max % Inhibition” value in test [2] (0.1 mg/kg, IV) was found to be 100%. In test [1], `N=C(N)c1ccc(CCCCC(=O)N[C@@H](CC(=O)O)C(=O)NCCc2c[nH]c3ccccc23)cc1` [3S-[[5-[4-(aminoiminomethyl)phenyl]-1-oxopentyl]amino]-4-[[2-(1H-indol-3-yl)ethyl]amino]-4-oxobutanoic acid] gave an IC50 of 280 nM and an inhibition at 10 µM of 100%. On to `COC(=O)C[C@H](NC(=O)CCCCc1ccc(C(=N)N)cc1)C(=O)N[C@@H](Cc1ccccc1)C(=O)OC` [N-[5-[4-(aminoiminomethyl)phenyl]-1-oxopentyl]-N-L-α-aspartyl-L-phenylalanine, dimethyl ester], for which, in test [1], half-maximal inhibition (IC50) was put at 400 nM and the inhibition at 10 µM is 100%. On the same counts, the results for `CC(C)[C@H](NC(=O)[C@H](CC(=O)O)NC(=O)CCCCc1ccc(C(=N)N)cc1)C(=O)O` [N-[5-[4-(aminoiminomethyl)phenyl]-1-oxopentyl]-N-L-α-aspartyl-L-valine] are 130 nM and 100%.

`CN(CC(=O)N[C@@H](CC(=O)O)C(=O)N[C@@H](Cc1ccccc1)C(=O)O)C(=O)CCc1ccc(C(=N)N)cc1` [N-[N-[2-[[3-[4-(aminoiminomethyl)phenyl]-1-oxopropyl]methylamino] -1-oxoethyl]-L-α-aspartyl]-L-phenylalanine]: in test [1], the 50% inhibitory concentration (IC50) came to 700 nM and testing at 10 µM gave an inhibition of 100%. Regarding `N=C(N)c1ccc2cc(OCC(=O)N[C@@H](CC(=O)O)C(=O)N[C@@H](Cc3ccccc3)C(=O)O)ccc2c1` [N-[N-[2-[[6-(aminoiminomethyl)-2-naphthalenyl]oxy]-1-oxoethyl]-L-α-aspartyl]-L-phenylalanine], in test [1], the IC50 came to 1100 nM and testing at 10 µM gave an inhibition of 100%. For `N=C(N)c1ccc2cc(CCC(=O)N[C@@H](CC(=O)O)C(=O)N[C@@H](Cc3ccccc3)C(=O)O)ccc2c1` [N-[N-[3-[6-(aminoiminomethyl)-2-naphthalenyl]-1-oxopropyl]-L-α-aspartyl]-L-phenylalanine], in that order: 5500 nM and 100%. On to `N=C(N)c1ccc(CCCC(=O)N[C@@H](CC(=O)O)C(=O)N[C@@H](Cc2ccccc2)C(=O)O)cc1` [N-[N-[4-[4-(aminoiminomethyl)phenyl]-1-oxobutyl]-L-α-aspartyl]-L-phenylalanine], for which, in test [1], testing at 10 µM gave an inhibition of 4%.

As for `N=C(N)c1cccc(CCCCC(=O)N[C@@H](CC(=O)O)C(=O)N[C@@H](Cc2ccccc2)C(=O)O)c1` [N-[N-[5-[3-(aminoiminomethyl)phenyl-1-oxopentyl]-L-α-aspartyl]-L-phenylalanine], 10 µM produced 25% inhibition in test [1]. `N=C(N)c1ccc(CC(=O)CCC(=O)N[C@@H](CC(=O)O)C(=O)N[C@@H](Cc2ccccc2)C(=O)O)cc1` [N-[N-[5-[4-(aminoiminomethyl)phenyl]-1,4-dioxopentyl]-L-α-aspartyl]-L-phenylalanine]: in test [1], the half-inhibitory concentration (IC50) amounted to 180 nM and the inhibition at 10 µM came to 100%.

Consider `N=C(N)c1ccc(/C=C\CCC(=O)N[C@@H](CC(=O)O)C(=O)N[C@@H](Cc2ccccc2)C(=O)O)cc1` [N-[N-[5-[4-(aminoiminomethyl)phenyl]-1-oxo-4Z-pentenyl]-L-α-aspartyl]-L-phenylalanine], for which, in test [1], the IC50 came to 600 nM and testing at 10 µM gave an inhibition of 100%. On to `CCOC(=O)C[C@H](NC(=O)CCCCc1ccc(C(=N)N)cc1)C(=O)N[C@@H](Cc1ccccc1)C(=O)OCC` [N-[N-[5-[4-(aminoiminomethyl)phenyl]-1-oxopentyl]-L-α-aspartyl]-L-phenylalanine, diethyl ester], for which the “Ex-vivo collagen induced aggregation, Max % Inhibition” value in test [2] (.025 mg/kg, IG) was found to be 39%. In test [1], `CN(C(=O)[C@H](CC(=O)O)NC(=O)CCCCc1ccc(C(=N)N)cc1)[C@@H](Cc1ccccc1)C(=O)O` [N-[N-[5-[4-(aminoiminomethyl)phenyl]-1-oxopentyl]-L-α-aspartyl]-N-methyl-L-phenylalanine] showed an IC50 of 1500 nM and an inhibition at 10 µM of 100%. In the case of `N=C(N)c1ccc(CC(O)CCC(=O)N[C@@H](CC(=O)O)C(=O)N[C@@H](Cc2ccccc2)C(=O)O)cc1` (stereo partly drawn) [N-[N-[5-[4-(aminoiminomethyl)phenyl]-4-hydroxy-1-oxopentyl]-L-α-aspartyl]-L-phenylalanine], the inhibition at 10 µM in test [1] was determined as 15%.

The values above are taken from patent US5481021A, “Phenyl amidines derivatives useful as platelet aggregation inhibitors” (G. D. Searle & Co., priority 1994, dated 1996).
